Here are results for one compound from patent publication US20250376481A1, “POLYCYCLIC CARBAMOYL PYRIDONE DERIVATIVE, PREPARATION METHOD THEREFOR AND PHARMACEUTICAL COMPOSITION THEREOF” (NANJING AIDEA PHARMACEUTICAL TECHNOLOGY CO., LTD., priority 2021, published 2025).

Bounds are passed on as bounds.

Series [1] in a line: Cytotoxicity test (cell viability, CellTier Glo). The class given is cell-based. The following applies: human. The protocol:
(§1) • Virus: The HIV-1 pseudovirus used in this experiment was a replication deficient virus, which is constructed by WuXi AppTec. • HEK 293T cell line was purchased from ATCC, and Item No. is CRL-11268. Cells were cultured in DMEM medium with 10% fetal bovine serum and 1% double antibody. • Reagents
(§2) On the first day, HEK 293T cells were inoculated into a 96 well test plate at the density of 55000 cells per well and […] per well, and incubated overnight in a 5% CO2 and 37° C. incubator.
(§3) On the second day, the tested compounds (compounds provided in the example of the present invention) and the control compounds were diluted 4-fold with cell culture medium for a total of 8 concentration points, and 50 μL diluted compounds were added to each well, and each well was performed duplicate.
(§4) Cell Control (cells, no compound treatment or virus infection) and virus control (cells infected with virus, no compound treatment) were set up. The final initial test concentration of the tested compounds and control compounds was 1000 nM (Table 1), and the amount of virus infection was 100 TCID50 per well. The total volume of cell culture medium was 200 μL per well, and the final concentration of DMSO in the culture medium was 0.5%.
(§5) The cells were cultured in a 5% CO2 and 37° C. incubator for additional 3 days.
On the fifth day, in the cytotoxicity test plates, 100 μL cell supernatant were sucked from each well, 100 μL cell viability assay reagent CellTier Gloin was added in dark. Cell viability in each well was detected by BioTek enzyme-linked immunosorbent assay reader, and the data was used for sample cytotoxicity analysis.
(§6) Dose-response curve was drawn through GraphPad Prism software. The calculation equations for antiviral activity (% Inhibition) and cell viability (% cell viability) were as follow:
(§7) The values of EC50 and CC50 were analyzed by GraphPad Prism (version 5) software, and nonlinear fitting analysis was used for inhibitory activity and cell viability of the compounds, and the fitting method was “log (inhibitor) vs. response—Variable slope”.
(§8) 3. The HIV-1 pseudovirus experiment was applied to determinate the in vitro antiviral activity and cytotoxicity of the tested compound on HEK 293T cells, and the experimental results were shown in the table below.

The subject of the next series is HIV-1 pseudovirus. In words: HIV-1 pseudovirus infection test (antiviral activity, luciferase). The class given is cell-based. The following applies: Human immunodeficiency virus 1, HEK-293T, 72 h. The protocol:
as §1, §2, §3
Subsequently, the HIV-1 pseudovirus was diluted to 100 TCID50/50 μL with cell culture medium, and 50 μL diluted virus was added to each well.
as §4, §5
On the fifth day, in the antiviral activity test plates, 100 μL cell supernatant was sucked away from each well, 100 μL 2X luciferase reporter gene assay reagent Britellite plus was added in dark. The luciferase activity in each well of the test plates was detected by Envision. The data was used for sample antiviral activity analysis.
as §6, §7, §8

As usually defined, the CC50 is the concentration that lowers cell viability or growth by half. The EC50 is the concentration at which the effect is half-maximal. A low value points to greater potency.

`C[C@H]1N2C(=O)c3c(O)c(=O)c(C(=O)NCc4ccc(F)cc4F)cn3C[C@@H]2OCC12CC2` [Compound 1]: the cytotoxic concentration (CC50) at 3 days in series [1] is greater than 1000 nM. Besides, the concentration for a half-maximal effect (EC50) with HIV-1 pseudovirus is 1.08 nM.
